From ChEMBL document CHEMBL4396892, “Estrogen signaling: An emanating therapeutic target for breast cancer treatment” (Eur J Med Chem, 2019)
Blank lines part the entries; values can stand above or below the compound they belong to.

How the values were obtained:
[1] = target: T1, Estrogen receptor (Homo sapiens, UniProt P03372)
T1 sequence (P03372 whole entry): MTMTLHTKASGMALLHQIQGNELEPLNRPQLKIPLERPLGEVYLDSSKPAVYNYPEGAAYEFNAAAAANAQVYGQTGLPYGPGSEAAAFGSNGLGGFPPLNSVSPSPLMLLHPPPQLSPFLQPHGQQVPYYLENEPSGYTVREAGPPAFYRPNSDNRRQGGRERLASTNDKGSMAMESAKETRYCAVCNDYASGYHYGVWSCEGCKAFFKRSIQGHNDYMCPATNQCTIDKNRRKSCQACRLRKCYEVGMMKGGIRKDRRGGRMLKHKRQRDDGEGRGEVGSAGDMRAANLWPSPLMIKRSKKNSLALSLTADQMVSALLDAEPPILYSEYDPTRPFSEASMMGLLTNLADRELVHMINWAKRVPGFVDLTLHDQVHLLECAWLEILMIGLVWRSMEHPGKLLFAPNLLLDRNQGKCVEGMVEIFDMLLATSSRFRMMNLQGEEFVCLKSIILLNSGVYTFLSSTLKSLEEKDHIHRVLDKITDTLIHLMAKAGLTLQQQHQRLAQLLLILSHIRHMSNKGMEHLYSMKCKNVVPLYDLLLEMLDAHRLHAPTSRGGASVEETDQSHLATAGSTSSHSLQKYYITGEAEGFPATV

[2] = target: T2, Aromatase (Homo sapiens, UniProt P11511)
T2 sequence (P11511 whole entry): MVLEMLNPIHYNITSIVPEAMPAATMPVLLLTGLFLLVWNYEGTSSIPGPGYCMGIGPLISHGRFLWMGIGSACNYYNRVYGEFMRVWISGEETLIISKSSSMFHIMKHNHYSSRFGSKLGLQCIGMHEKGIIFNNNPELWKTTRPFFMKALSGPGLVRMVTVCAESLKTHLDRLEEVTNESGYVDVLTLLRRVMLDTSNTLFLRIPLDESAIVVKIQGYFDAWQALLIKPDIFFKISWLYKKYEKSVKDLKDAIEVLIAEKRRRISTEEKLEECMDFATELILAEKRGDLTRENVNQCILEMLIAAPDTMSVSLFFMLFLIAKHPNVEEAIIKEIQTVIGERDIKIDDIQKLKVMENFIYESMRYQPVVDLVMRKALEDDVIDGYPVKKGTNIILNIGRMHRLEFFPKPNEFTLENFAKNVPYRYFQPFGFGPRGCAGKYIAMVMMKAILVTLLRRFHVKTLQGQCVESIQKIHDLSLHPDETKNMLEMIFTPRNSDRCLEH

[3] = target: T3, Steryl-sulfatase (Homo sapiens, UniProt P08842)
T3 sequence (P08842 whole entry): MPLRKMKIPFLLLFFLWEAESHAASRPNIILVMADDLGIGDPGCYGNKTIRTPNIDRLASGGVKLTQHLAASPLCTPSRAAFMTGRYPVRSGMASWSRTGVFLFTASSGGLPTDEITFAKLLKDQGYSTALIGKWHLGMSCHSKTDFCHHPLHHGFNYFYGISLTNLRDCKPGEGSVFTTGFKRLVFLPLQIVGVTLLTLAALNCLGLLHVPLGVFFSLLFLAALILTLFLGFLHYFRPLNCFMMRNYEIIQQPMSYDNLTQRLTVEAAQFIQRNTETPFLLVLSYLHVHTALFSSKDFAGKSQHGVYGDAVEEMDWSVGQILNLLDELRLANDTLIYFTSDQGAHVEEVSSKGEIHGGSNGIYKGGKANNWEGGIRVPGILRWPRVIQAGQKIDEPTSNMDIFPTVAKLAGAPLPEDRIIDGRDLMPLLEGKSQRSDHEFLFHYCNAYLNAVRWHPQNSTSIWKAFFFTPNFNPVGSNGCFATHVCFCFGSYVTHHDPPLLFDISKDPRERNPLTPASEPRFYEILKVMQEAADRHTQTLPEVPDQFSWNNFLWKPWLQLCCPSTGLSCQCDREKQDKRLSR

[4] = target: Estrogen receptor beta (Homo sapiens, UniProt Q92731); type: cell-based, MCF7
[5] = target: T3, Steryl-sulfatase; remark: listed apart in the source
[6] = target: T2, Aromatase; type: microsomes, Placenta, Microsome
[7] = target: T1, Estrogen receptor; remark: listed apart in the source
[8] = target: Receptor tyrosine-protein kinase erbB-2 (Homo sapiens, UniProt P04626)
[9] = target: T1, Estrogen receptor; remark: listed apart in the source
[10] = target: RAF proto-oncogene serine/threonine-protein kinase (Homo sapiens, UniProt P04049); type: cell-based, MCF7
[11] = target: T3, Steryl-sulfatase; type: microsomes, Placenta, Microsome
[12] = target: T3, Steryl-sulfatase; type: cell-based, HEK293
[13] = target: T3, Steryl-sulfatase; type: cell-based, HEK293; remark: listed apart in the source
[14] = test system: MCF7; assay: cells; type: functional, cell-based; settings: Homo sapiens, MCF7, 72 h
[15] = target: T2, Aromatase; type: microsomes, Placenta, Microsome; remark: listed apart in the source
[16] = target: T3, Steryl-sulfatase; remark: listed apart in the source
[17] = target: T1, Estrogen receptor; type: cell-based, MCF7

Chain of RAF proto-oncogene serine/threonine-protein kinase (P04049 whole entry): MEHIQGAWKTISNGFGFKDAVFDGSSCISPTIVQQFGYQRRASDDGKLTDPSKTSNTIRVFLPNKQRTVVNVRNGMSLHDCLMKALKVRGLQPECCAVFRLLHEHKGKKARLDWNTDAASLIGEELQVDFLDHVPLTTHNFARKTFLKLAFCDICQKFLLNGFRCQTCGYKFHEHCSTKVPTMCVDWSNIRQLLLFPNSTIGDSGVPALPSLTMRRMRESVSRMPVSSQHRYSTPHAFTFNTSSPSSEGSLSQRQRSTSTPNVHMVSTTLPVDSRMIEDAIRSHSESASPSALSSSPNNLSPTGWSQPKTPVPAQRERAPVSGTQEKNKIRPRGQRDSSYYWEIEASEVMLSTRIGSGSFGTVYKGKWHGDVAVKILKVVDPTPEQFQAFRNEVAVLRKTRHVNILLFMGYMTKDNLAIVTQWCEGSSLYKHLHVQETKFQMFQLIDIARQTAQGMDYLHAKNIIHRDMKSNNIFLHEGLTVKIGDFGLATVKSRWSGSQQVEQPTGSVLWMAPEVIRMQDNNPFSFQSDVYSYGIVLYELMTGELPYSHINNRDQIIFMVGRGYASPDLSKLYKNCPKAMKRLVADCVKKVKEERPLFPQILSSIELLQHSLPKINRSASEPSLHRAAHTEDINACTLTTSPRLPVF
Chain of Estrogen receptor beta (Q92731 whole entry): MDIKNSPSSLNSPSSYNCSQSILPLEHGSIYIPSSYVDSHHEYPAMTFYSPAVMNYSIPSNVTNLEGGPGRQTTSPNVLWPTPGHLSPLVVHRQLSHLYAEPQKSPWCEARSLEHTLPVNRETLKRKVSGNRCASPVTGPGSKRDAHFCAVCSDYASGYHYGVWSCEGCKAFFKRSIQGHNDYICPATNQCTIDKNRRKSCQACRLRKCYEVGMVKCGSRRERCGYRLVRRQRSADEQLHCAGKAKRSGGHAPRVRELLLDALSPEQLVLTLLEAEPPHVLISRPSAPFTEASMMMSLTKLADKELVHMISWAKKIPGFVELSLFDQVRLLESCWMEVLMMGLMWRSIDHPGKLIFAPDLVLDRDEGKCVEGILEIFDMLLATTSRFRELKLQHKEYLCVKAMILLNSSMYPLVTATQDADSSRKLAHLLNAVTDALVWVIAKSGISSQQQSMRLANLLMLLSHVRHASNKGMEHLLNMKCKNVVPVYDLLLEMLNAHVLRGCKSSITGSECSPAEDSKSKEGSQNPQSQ
Chain of Receptor tyrosine-protein kinase erbB-2 (P04626 whole entry): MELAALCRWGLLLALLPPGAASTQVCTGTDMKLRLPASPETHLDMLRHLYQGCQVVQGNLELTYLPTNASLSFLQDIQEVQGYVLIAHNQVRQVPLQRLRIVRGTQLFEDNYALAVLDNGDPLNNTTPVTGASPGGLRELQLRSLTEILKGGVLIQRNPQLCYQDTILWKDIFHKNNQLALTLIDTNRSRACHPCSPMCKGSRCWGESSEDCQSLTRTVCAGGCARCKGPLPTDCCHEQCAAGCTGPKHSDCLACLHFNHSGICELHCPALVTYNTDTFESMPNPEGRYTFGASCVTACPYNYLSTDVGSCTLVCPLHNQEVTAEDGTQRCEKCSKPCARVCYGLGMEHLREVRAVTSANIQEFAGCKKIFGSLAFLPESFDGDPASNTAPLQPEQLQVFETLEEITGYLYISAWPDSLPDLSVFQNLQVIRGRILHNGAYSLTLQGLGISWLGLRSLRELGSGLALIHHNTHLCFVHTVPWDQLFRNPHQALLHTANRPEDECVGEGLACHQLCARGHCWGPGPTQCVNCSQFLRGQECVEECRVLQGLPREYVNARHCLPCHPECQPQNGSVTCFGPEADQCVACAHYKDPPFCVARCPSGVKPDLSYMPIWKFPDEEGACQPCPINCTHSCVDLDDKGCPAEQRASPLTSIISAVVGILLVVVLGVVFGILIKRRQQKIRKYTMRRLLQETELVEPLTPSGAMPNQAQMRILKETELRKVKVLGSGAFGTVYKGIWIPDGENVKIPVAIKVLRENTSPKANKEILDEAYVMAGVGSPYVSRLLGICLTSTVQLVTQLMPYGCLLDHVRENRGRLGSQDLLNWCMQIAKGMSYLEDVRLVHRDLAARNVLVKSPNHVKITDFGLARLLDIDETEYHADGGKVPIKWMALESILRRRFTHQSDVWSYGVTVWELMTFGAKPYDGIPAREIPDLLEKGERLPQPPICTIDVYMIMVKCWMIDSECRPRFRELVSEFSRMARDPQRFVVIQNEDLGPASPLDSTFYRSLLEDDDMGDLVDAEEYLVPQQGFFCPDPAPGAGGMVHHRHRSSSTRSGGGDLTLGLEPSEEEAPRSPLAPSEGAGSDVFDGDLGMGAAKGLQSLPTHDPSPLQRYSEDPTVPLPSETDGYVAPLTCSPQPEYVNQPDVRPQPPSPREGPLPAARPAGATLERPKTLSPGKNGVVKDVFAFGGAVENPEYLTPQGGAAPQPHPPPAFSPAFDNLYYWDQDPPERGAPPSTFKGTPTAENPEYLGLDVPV

- IC50 [1]: 250000 nM
Compound: O=c1cc(-c2ccccc2)nc2ccc(-c3ccccc3O)cn12

- IC50 [2]: 41 nM
Compound: Oc1ccc2c(c1)O[C@@H](c1ccccc1)C[C@@H]2n1ccnc1

- IC50 [3]: 0.047 nM
Compound: CC(C)(C)c1cc(=O)c2cc(OS(N)(=O)=O)ccc2o1

- Ki [4]: 1800 nM
Compound: Cc1c(-c2ccc(O)cc2)nn(-c2ccc(O)cc2)c1-c1ccc(OCCN2CCCCC2)cc1

- IC50 [5]: 55.8 nM
Compound: CCCCCCCCCCCCC(=O)NCCc1ccc(OS(N)(=O)=O)cc1

Compound: C[C@]12CCC(=O)C=C1C=C(CCc1ccccc1)[C@@H]1[C@@H]2CC[C@]2(C)C(=O)CC[C@@H]12
- Ki [2]: 174 nM

- IC50 [6]: 0.4 nM
Compound: N#Cc1ccc(N(Cc2ccc(Br)cc2)n2cnnc2)cc1

- IC50 [6]: 0.12 nM
Compound: O=[N+]([O-])c1ccc(N(Cc2ccc(Br)cc2)n2cnnc2)cc1

- IC50 [5]: 180 nM
Compound: N#Cc1ccc2sc(C34CC5CC(CC(C5)C3)C4)cc(=O)c2c1

- IC50 [5]: 2.5 nM
Compound: N#Cc1ccc(N(Cc2ccc(OS(N)(=O)=O)cc2F)n2cnnc2)cc1

- IC50 [7]: 30 nM
Compound: CC/C(=C(\c1ccc(O)cc1)c1ccc(OCCNCCCCCCNC(=O)CCC2=[N+]3C(=CC4=CC=C(C)C4[B-]3(F)F)C=C2)cc1)c1ccccc1 (centres undefined)

- IC50 [8]: 100 nM
- IC50 [9]: 80 nM
- IC50 [10]: 1500 nM
Compound: CO[C@H]1/C=C\C=C(/C)C(=O)NC2=CC(=O)C(NC/C=C/C[C@@H]3C[C@H]4[C@@H]5CCc6cc(O)ccc6[C@H]5CC[C@]4(C)[C@H]3O)=C(C[C@@H](C)C[C@H](OC)[C@H](O)[C@@H](C)/C=C(\C)[C@@H]1OC(N)=O)C2=O (stereo in doubt)

- IC50 [5]: 37800 nM
Compound: O=c1oc2cc(OP(=O)(O)O)ccc2c2c1CCCC2

- IC50 [3]: 0.089 nM
Compound: CCCCCCCCCc1cc(=O)c2cc(OS(N)(=O)=O)ccc2o1

Compound: C[C@]12CC[C@@H]3c4ccc(NC(=O)C(F)(F)F)cc4CC[C@H]3[C@@H]1CCC2=O
- IC50 [5]: 8700 nM

- Ki [5]: 35900 nM
Compound: CC/C(=C(/c1ccc(OCCN(C)C)cc1)c1ccc(OS(N)(=O)=O)cc1)c1ccccc1

- IC50 [11]: 72 nM
Compound: CCCCCCCCCCCCCC(=O)NCc1ccc(OS(N)(=O)=O)cc1

- IC50 [12]: 14 nM
- IC50 [13]: 46 nM
Compound: CC(C)(C)c1ccc(C[C@]2(O)CC[C@H]3[C@@H]4CC=C5C[C@@H](OS(N)(=O)=O)CC[C@]5(C)[C@H]4CC[C@@]32C)cc1

- IC50 [14]: 3000 nM
Compound: CC(O)[C@@]12C[C@@H]1C[C@H]1[C@@H]3CCc4cc(O)ccc4[C@H]3CC[C@]12C (some centres undefined)

- IC50 [15]: 100 nM
Compound: COc1ccc2c(c1)C(N)=C(Cc1ccncc1)C2=O

- IC50 [1]: 3.5 nM
Compound: CC(C)(C#N)c1cc(CSc2ccc(OS(N)(=O)=O)cc2)cc(Cn2cncn2)c1

- IC50 [16]: 460 nM
- Ki [16]: 350 nM
Compound: COc1c2c(c(O)c3c1C(=O)c1cc(C)c(O)cc1C3=O)-c1c(cc(/C=N/NC(=S)NC3CCCCC3)c(C(=O)O)c1O)CC2

- Ki [5]: > 500000 nM
Compound: CC/C(=C(\c1ccc(OCCN(C)C)cc1)c1ccc(OS(N)(=O)=O)cc1)c1ccccc1

Compound: C[C@]12CC[C@@H]3c4ccc(C(F)(F)S(N)(=O)=O)cc4CC[C@H]3[C@@H]1CCC2=O
- Ki [5]: 28000 to 82000 nM

- IC50 [17]: 5490 nM
Compound: C/C=C1/[C@H](O)C[C@H]2[C@@H]3CCc4cc(OC)ccc4[C@H]3CC[C@]12C
